From the supplement of paper PMC11208160

Experiment: recombinant UMI read abundance after kanamycin selection (control-corrected) (log10(CPM+1)); higher = more efficient recombination; extreme values may be limits of the assay; sequences stand for … in AGTGCAGAGAAAATCGGCCAGTTTTCTCTGCCTGCAGTCCGCATGCCGTGGGACCCCTTGGGTTCTAACCTGTTGCCTAGATTTATGCAGCGGACTGCCTTTCTCCCAAAGTGATAAACCGG…AGGTTGGTTTCACT; site = the 11-nt donor
How it was run: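 Each donor and donor-binding-loop pair was tracked by a 12-nt UMI on a plasmid carrying a promoterless kanamycin gene. With a second plasmid supplying a fixed target and T7-inducible IS621 bridge recombinase, the pool was plated in Escherichia coli on IPTG (0.07 mM) plus kanamycin or unselected. Sequencing of recombinant UMIs across the donor–target junction gave counts expressed as log10(CPM+1) after replicate averaging and control-derived scaling.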
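Further: IS621 bridge recombinase in Escherichia coli cells against a fixed T5 target plasmid.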

Question: For “CTCGTAACATGGACCGGTTTTCCCGGTAATCCGTATTTGAT (site CTCGTAACTAT)”, which “recombinant UMI read abundance (log10)” value is on record?
Answer: 2.31

Question: With “CTCGTATCATGGACCGGTTTTCCCGGTAATCCGTATTTGAG (site CTAGTATCTGT)” as the sequence, how does the “recombinant UMI read abundance (log10)” value read?
Answer: 0

Question: Which “recombinant UMI read abundance (log10)” value does the source give for “CTCGTATCATGGACCGGTTTTCCCGGTAATCCGTATTTGAG (site CTCGTATCTCT)” here?
Answer: 1.9

Question: For “CTCTAAGCATGGACCGGTTTTCCCGGTAATCCGTATTTGTC (site CTCTAAGCTGA)”, which “recombinant UMI read abundance (log10)” value is on record?
Answer: 1.81

Question: For “CTCTACACATGGACCGGTTTTCCCGGTAATCCGTATTTGAT (site CTCTACACTAA)”, which “recombinant UMI read abundance (log10)” value is on record?
Answer: 0.0183

Question: For “CTCTACACATGGACCGGTTTTCCCGGTAATCCGTATTTGAT (site CTCTACACTAC)”, which “recombinant UMI read abundance (log10)” value is on record?
Answer: 0.0649

Question: With “CTCTACACATGGACCGGTTTTCCCGGTAATCCGTATTTGAT (site CTCTACACTAG)” as the sequence, how does the “recombinant UMI read abundance (log10)” value read?
Answer: 0.00358

Question: For “CTCTACACATGGACCGGTTTTCCCGGTAATCCGTATTTGAT (site CTCTACACTAT)”, which “recombinant UMI read abundance (log10)” value is on record?
Answer: 2.19

Question: For “CTCTACACATGGACCGGTTTTCCCGGTAATCCGTATTTGCC (site CTCTACACTAG)”, which “recombinant UMI read abundance (log10)” value is on record?
Answer: 0.72

Question: Which “recombinant UMI read abundance (log10)” value does the source give for “CTCTACACATGGACCGGTTTTCCCGGTAATCCGTATTTGCC (site CTCTACACTCG)” here?
Answer: 0.0134

Question: Which “recombinant UMI read abundance (log10)” value does the source give for “CTCTACACATGGACCGGTTTTCCCGGTAATCCGTATTTGCC (site CTCTACACTGG)” here?
Answer: 2.37

Question: With “CTCTACACATGGACCGGTTTTCCCGGTAATCCGTATTTGCC (site CTCTACACTTG)” as the sequence, how does the “recombinant UMI read abundance (log10)” value read?
Answer: 2.13

Question: Which “recombinant UMI read abundance (log10)” value does the source give for “CTCTACCCATGGACCGGTTTTCCCGGTAATCCGTATTTGCT (site CTCTACACTAG)” here?
Answer: 0.274

Question: For “CTCTACCCATGGACCGGTTTTCCCGGTAATCCGTATTTGCT (site CTCTACCCTAG)”, which “recombinant UMI read abundance (log10)” value is on record?
Answer: 1.74

Question: For “CTCTACCCATGGACCGGTTTTCCCGGTAATCCGTATTTGCT (site CTCTACGCTAG)”, which “recombinant UMI read abundance (log10)” value is on record?
Answer: 0.00357

Question: Which “recombinant UMI read abundance (log10)” value does the source give for “CTCTACCCATGGACCGGTTTTCCCGGTAATCCGTATTTGCT (site CTCTACTCTAG)” here?
Answer: 2.87

Question: Which “recombinant UMI read abundance (log10)” value does the source give for “CTCTAGACATGGACCGGTTTTCCCGGTAATCCGTATTTGCT (site CTCTAAACTAG)” here?
Answer: 0.681

Question: Which “recombinant UMI read abundance (log10)” value does the source give for “CTCTAGACATGGACCGGTTTTCCCGGTAATCCGTATTTGCT (site CTCTACACTAG)” here?
Answer: 0.119

Question: For “CTCTAGACATGGACCGGTTTTCCCGGTAATCCGTATTTGCT (site CTCTAGACTAG)”, which “recombinant UMI read abundance (log10)” value is on record?
Answer: 0.576

Question: For “CTCTAGACATGGACCGGTTTTCCCGGTAATCCGTATTTGCT (site CTCTATACTAG)”, which “recombinant UMI read abundance (log10)” value is on record?
Answer: 0

Question: With “CTCTCCACATGGACCGGTTTTCCCGGTAATCCGTATTTGCT (site CTCTACACTAG)” as the sequence, how does the “recombinant UMI read abundance (log10)” value read?
Answer: 0.902

Question: For “CTCTCCACATGGACCGGTTTTCCCGGTAATCCGTATTTGCT (site CTCTCCACTAG)”, which “recombinant UMI read abundance (log10)” value is on record?
Answer: 2.34

Question: With “CTCTCCACATGGACCGGTTTTCCCGGTAATCCGTATTTGCT (site CTCTGCACTAG)” as the sequence, how does the “recombinant UMI read abundance (log10)” value read?
Answer: 0

Question: For “CTCTCCACATGGACCGGTTTTCCCGGTAATCCGTATTTGCT (site CTCTTCACTAG)”, which “recombinant UMI read abundance (log10)” value is on record?
Answer: 0.534

Question: For “CTCTGCACATGGACCGGTTTTCCCGGTAATCCGTATTTGCT (site CTCTACACTAG)”, which “recombinant UMI read abundance (log10)” value is on record?
Answer: 0.861

Question: With “CTCTGCACATGGACCGGTTTTCCCGGTAATCCGTATTTGCT (site CTCTCCACTAG)” as the sequence, how does the “recombinant UMI read abundance (log10)” value read?
Answer: 0.00325

Question: For “CTCTGCACATGGACCGGTTTTCCCGGTAATCCGTATTTGCT (site CTCTGCACTAG)”, which “recombinant UMI read abundance (log10)” value is on record?
Answer: 2.1

Question: For “CTCTGCACATGGACCGGTTTTCCCGGTAATCCGTATTTGCT (site CTCTTCACTAG)”, which “recombinant UMI read abundance (log10)” value is on record?
Answer: 0.00616

Question: With “CTCTTCTCATGGACCGGTTTTCCCGGTAATCCGTATTTGTA (site CTCTTCTCTTA)” as the sequence, how does the “recombinant UMI read abundance (log10)” value read?
Answer: 2.1

Question: Which “recombinant UMI read abundance (log10)” value does the source give for “CTGACTCCATGGACCGGTTTTCCCGGTAATCCGTATTTGGG (site CTGACTCCTCC)” here?
Answer: 0.44

Question: Which “recombinant UMI read abundance (log10)” value does the source give for “CTGCAAACATGGACCGGTTTTCCCGGTAATCCGTATTTGCA (site CTGAAAACTTG)” here?
Answer: 0

Question: For “CTGCAAACATGGACCGGTTTTCCCGGTAATCCGTATTTGCA (site CTGCAAACTTG)”, which “recombinant UMI read abundance (log10)” value is on record?
Answer: 0.915

Question: Which “recombinant UMI read abundance (log10)” value does the source give for “CTGCAAACATGGACCGGTTTTCCCGGTAATCCGTATTTGCA (site CTGGAAACTTG)” here?
Answer: 0

Question: Which “recombinant UMI read abundance (log10)” value does the source give for “CTGCAAACATGGACCGGTTTTCCCGGTAATCCGTATTTGCA (site CTGTAAACTTG)” here?
Answer: 0

Question: Which “recombinant UMI read abundance (log10)” value does the source give for “CTGCACCCATGGACCGGTTTTCCCGGTAATCCGTATTTGGC (site CTGCACCCTGC)” here?
Answer: 0.469

Question: For “CTGCAGGCATGGACCGGTTTTCCCGGTAATCCGTATTTGAG (site CTGCAGGCTCT)”, which “recombinant UMI read abundance (log10)” value is on record?
Answer: 1.5

Question: For “CTGCATGCATGGACCGGTTTTCCCGGTAATCCGTATTTGGT (site ATGCATGCTAC)”, which “recombinant UMI read abundance (log10)” value is on record?
Answer: 0.0144

Question: Which “recombinant UMI read abundance (log10)” value does the source give for “CTGCATGCATGGACCGGTTTTCCCGGTAATCCGTATTTGGT (site CTGCATGCTAC)” here?
Answer: 1.57
